Source: PubChem BioAssay AID330 (DTP/NCI, 2004)
Inconclusive results and toxic doses are left out. How the source made its calls: active means survival T/C of 150% or more; inactive means T/C below 125% in these data.

Tested on: P388 leukemia ip, CD2F1 mice, survival T/C
Assay: NCI In Vivo Anticancer Drug Screen. Data for tumor model P388 Leukemia (intraperitoneal) in CD2F1 (CDF1) mice
Settings: endpoint: median survival time, higher = longer survival
How it was run: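 Mice carrying the transplanted tumor received test compound or vehicle. Survival was recorded in each group, and the value is the treated-group measurement divided by that of the vehicle-treated control group.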

[1] = dose: 12.5 mg/kg/injection, schedule: Q01DX005 (ip), vehicle: Klucel (hydroxypropylcellulose) (HPC)
[2] = dose: 50.0 mg/kg/injection, schedule: Q01DX005 (ip), vehicle: Klucel (hydroxypropylcellulose) (HPC)
[3] = dose: 50.0 mg/kg/injection, schedule: Q01DX009 (ip), vehicle: saline
[4] = dose: 100.0 mg/kg/injection, schedule: Q01DX009 (ip), vehicle: saline
[5] = dose: 200.0 mg/kg/injection, schedule: Q01DX009 (ip), vehicle: saline
[6] = dose: 100.0 mg/kg/injection, schedule: Q04DX002 (ip), vehicle: Klucel (hydroxypropylcellulose) (HPC)
[7] = dose: 200.0 mg/kg/injection, schedule: Q04DX002 (ip), vehicle: Klucel (hydroxypropylcellulose) (HPC)
[8] = dose: 60.0 mg/kg/injection, schedule: Q01DX005 (ip), vehicle: saline with Tween-80
[9] = dose: 120.0 mg/kg/injection, schedule: Q01DX005 (ip), vehicle: saline with Tween-80
[10] = dose: 240.0 mg/kg/injection, schedule: Q01DX005 (ip), vehicle: saline with Tween-80
[11] = dose: 50.0 mg/kg/injection, schedule: Q01DX005 (ip), vehicle: saline with Tween-80
[12] = dose: 100.0 mg/kg/injection, schedule: Q01DX005 (ip), vehicle: saline with Tween-80
[13] = dose: 60.0 mg/kg/injection, schedule: Q01DX005 (ip), vehicle: Klucel (hydroxypropylcellulose) (HPC)
[14] = dose: 120.0 mg/kg/injection, schedule: Q01DX005 (ip), vehicle: Klucel (hydroxypropylcellulose) (HPC)
[15] = dose: 240.0 mg/kg/injection, schedule: Q01DX005 (ip), vehicle: Klucel (hydroxypropylcellulose) (HPC)
[16] = dose: 200.0 mg/kg/injection, schedule: Q01DX005 (ip), vehicle: Klucel (hydroxypropylcellulose) (HPC)

Measured: T/C

COc1cc2c(cc1OC)C(C)P(C)(=O)CC2O (configuration not stated)
inactive: dose: 100.0 mg/kg/injection, schedule: Q04DX002 (ip), vehicle: saline with Tween-80 100 % of control | dose: 100.0 mg/kg/injection, schedule: Q04DX002 (ip), vehicle: saline 109 % of control | dose: 200.0 mg/kg/injection, schedule: Q04DX002 (ip), vehicle: saline with Tween-80 107 % of control | dose: 200.0 mg/kg/injection, schedule: Q04DX002 (ip), vehicle: saline 98 % of control | dose: 400.0 mg/kg/injection, schedule: Q04DX002 (ip), vehicle: saline with Tween-80 100 % of control | dose: 400.0 mg/kg/injection, schedule: Q04DX002 (ip), vehicle: saline 98 % of control

C[C@H](N)[C@@H](O)/C=C/c1ccccc1
inactive: dose: 10.0 mg/kg/injection, schedule: Q01DX005 (ip), vehicle: saline 98 % of control | dose: 20.0 mg/kg/injection, schedule: Q01DX005 (ip), vehicle: saline 100 % of control | dose: 40.0 mg/kg/injection, schedule: Q01DX005 (ip), vehicle: saline 100 % of control

O=C1NC(O)c2cc(Br)cc(Br)c2O1 (configuration not stated)
inactive: [1] 100 % of control | dose: 25.0 mg/kg/injection, schedule: Q01DX005 (ip), vehicle: Klucel (hydroxypropylcellulose) (HPC) 101 % of control | [2] 103 % of control

O=c1ccocc1CN1CCCCC1
inactive: [3] 100 % of control | [4] 99 % of control | [5] 99 % of control

CC1(C)SC(=O)C(=O)S1
inactive: dose: 100.0 mg/kg/injection, schedule: Q04DX003 (ip), vehicle: saline 103 % of control | dose: 200.0 mg/kg/injection, schedule: Q04DX003 (ip), vehicle: saline 93 % of control

Cc1ccc2c(c1)P(=O)(c1ccccc1C(O)(C(F)(F)F)C(F)(F)F)c1cc(C)ccc1O2
inactive: [6] 101 % of control | [7] 94 % of control | dose: 400.0 mg/kg/injection, schedule: Q04DX002 (ip), vehicle: Klucel (hydroxypropylcellulose) (HPC) 90 % of control

CCOc1cc2c(NCCCN(CCO)CCO)ncnc2c(OCC)c1OCC
inactive: [3] 101 % of control | [4] 111 % of control | [5] 101 % of control

Clc1nc(C(Cl)Cl)nc2sc3c(c12)CCCC3
inactive: [8] 98 % of control | [9] 94 % of control | [10] 96 % of control

CCOC(=O)c1c(OC)c(-c2ccccc2)c(=O)n2c3ccccc3n(C)c12
inactive: [8] 95 % of control | [9] 88 % of control

Cc1c([N+](=O)[O-])ccn1C
inactive: dose: 50.0 mg/kg/injection, schedule: Q01DX009 (ip), vehicle: saline with Tween-80 98 % of control | dose: 100.0 mg/kg/injection, schedule: Q01DX009 (ip), vehicle: saline with Tween-80 105 % of control | dose: 200.0 mg/kg/injection, schedule: Q01DX009 (ip), vehicle: saline with Tween-80 97 % of control

CN(c1ccc(C2=NCCN2)cc1)S(=O)(=O)c1ccc(Cc2ccc(S(=O)(=O)N(C)c3ccc(C4=NCCN4)cc3)cc2)cc1
inactive: dose: 6.25 mg/kg/injection, schedule: Q01DX005 (ip), vehicle: Klucel (hydroxypropylcellulose) (HPC) 103 % of control | [1] 97 % of control

CC(C)(CS)C(=O)O
inactive: [3] 103 % of control

Cn1cc2c(cc1=O)-c1nc3ccccc3c3ccnc(c13)C2=O
inactive: dose: 1.25 mg/kg/injection, schedule: Q01DX005 (ip), vehicle: other 96 % of control | dose: 2.5 mg/kg/injection, schedule: Q01DX005 (ip), vehicle: other 97 % of control | dose: 5.0 mg/kg/injection, schedule: Q01DX005 (ip), vehicle: other 92 % of control | dose: 10.0 mg/kg/injection, schedule: Q01DX005 (ip), vehicle: other 90 % of control

c1ccc(P(CCNCCP(c2ccccc2)c2ccccc2)c2ccccc2)cc1
inactive: [11] 105 % of control | [12] 109 % of control

CC(=Nc1ccc(C)cc1N)c1c(O)cc(C)oc1=O
inactive: [13] 95 % of control | [14] 96 % of control | [15] 101 % of control

COc1ccc(C(c2cc(C(C)(C)C)cc(C(C)(C)C)c2O)N2CCOCC2)cc1 (configuration not stated)
inactive: dose: 50.0 mg/kg/injection, schedule: Q01DX005 (ip), vehicle: distilled water + alcohol 99 % of control | dose: 100.0 mg/kg/injection, schedule: Q01DX005 (ip), vehicle: distilled water + alcohol 103 % of control | dose: 200.0 mg/kg/injection, schedule: Q01DX005 (ip), vehicle: distilled water + alcohol 99 % of control

CCCCCC(=O)/C=C/C1=C(N2CCCC2)CN(C(=O)OCC)C1
inactive: [13] 86 % of control | [14] 89 % of control | [15] 91 % of control

Cc1ccc(NC(=O)CC(=O)CC(C)C)cc1C
inactive: [11] 107 % of control | [9] 113 % of control | [10] 114 % of control

COc1cc(Cc2nc3n(O)cc(C)nc-3c(=N)n2)cc(OC)c1OC
inactive: dose: 12.5 mg/kg/injection, schedule: Q01DX009 (ip), vehicle: saline 99 % of control | dose: 25.0 mg/kg/injection, schedule: Q01DX009 (ip), vehicle: saline 105 % of control | [3] 108 % of control

CCCCC(CCC)(CCN)CCCC
inactive: dose: 3.0 mg/kg/injection, schedule: Q01DX009 (ip), vehicle: saline 95 % of control | dose: 6.0 mg/kg/injection, schedule: Q01DX009 (ip), vehicle: saline 100 % of control | dose: 12.0 mg/kg/injection, schedule: Q01DX009 (ip), vehicle: saline 104 % of control

S=C(S)NC1CCN(Cc2ccccc2)CC1
inactive: [2] 107 % of control | dose: 100.0 mg/kg/injection, schedule: Q01DX005 (ip), vehicle: Klucel (hydroxypropylcellulose) (HPC) 102 % of control | [16] 96 % of control

Oc1ccc2ccccc2c1N=Nc1ccc(Cl)cc1
inactive: dose: 100.0 mg/kg/injection, schedule: Q04DX003 (ip), vehicle: saline with Tween-80 100 % of control | dose: 200.0 mg/kg/injection, schedule: Q04DX003 (ip), vehicle: saline with Tween-80 100 % of control | dose: 400.0 mg/kg/injection, schedule: Q04DX003 (ip), vehicle: saline with Tween-80 90 % of control

O=C1c2cc([N+](=O)[O-])cc3cc([N+](=O)[O-])cc(c23)C(=O)N1CCCNCCNCCCN1C(=O)c2cc([N+](=O)[O-])cc3cc([N+](=O)[O-])cc(c23)C1=O
inactive: [11] 100 % of control | [12] 100 % of control | dose: 200.0 mg/kg/injection, schedule: Q01DX005 (ip), vehicle: saline with Tween-80 100 % of control

Cc1cn(CCCCCCOc2c3occc3cc3ccc(=O)oc23)c(=O)[nH]c1=O
inactive: [2] 92 % of control | dose: 50.0 mg/kg/injection, schedule: Q04DX002 (ip), vehicle: Klucel (hydroxypropylcellulose) (HPC) 98 % of control | [6] 104 % of control | [16] 88 % of control | [7] 96 % of control

[Cl][Cr]([Cl])[Cl].[NH-]CC[N-]CC[NH-]
inactive: [3] 97 % of control | [4] 109 % of control | [5] 115 % of control

CC1C2c3ccccc3C(c3ccccc32)C1CN1C(CCO)COC1c1ccccc1 (configuration not stated)
inactive: [8] 92 % of control | [9] 87 % of control | [10] 90 % of control

CC1Oc2[nH]c(=O)n(-c3ccc(Cl)cc3)c(=S)c2C1C (configuration not stated)
inactive: dose: 12.5 mg/kg/injection, schedule: Q01DX001 (ip), vehicle: Klucel (hydroxypropylcellulose) (HPC) 100 % of control | dose: 25.0 mg/kg/injection, schedule: Q01DX001 (ip), vehicle: Klucel (hydroxypropylcellulose) (HPC) 102 % of control | dose: 50.0 mg/kg/injection, schedule: Q01DX001 (ip), vehicle: Klucel (hydroxypropylcellulose) (HPC) 101 % of control

O=C(S)CC(O)(c1ccccc1)c1ccccc1
inactive: dose: 100.0 mg/kg/injection, schedule: Q04DX003 (ip), vehicle: Klucel (hydroxypropylcellulose) (HPC) 105 % of control | dose: 200.0 mg/kg/injection, schedule: Q04DX003 (ip), vehicle: Klucel (hydroxypropylcellulose) (HPC) 105 % of control | dose: 400.0 mg/kg/injection, schedule: Q04DX003 (ip), vehicle: Klucel (hydroxypropylcellulose) (HPC) 101 % of control

COC(=O)C(C)c1[nH]c2ccccc2c1[Se]c1ccccc1 (configuration not stated)
inactive: dose: 100.0 mg/kg/injection, schedule: Q01DX001 (ip), vehicle: saline with Tween-80 102 % of control | dose: 200.0 mg/kg/injection, schedule: Q01DX001 (ip), vehicle: saline with Tween-80 106 % of control | dose: 400.0 mg/kg/injection, schedule: Q01DX001 (ip), vehicle: saline with Tween-80 94 % of control
